Assay results: patent US6632816B1, “Aromatic derivatives as HIV aspartyl protease inhibitors” (Pharmacor Inc., priority 2002, dated 2003)
Like-named read-outs stand apart in the source and are kept apart here.

How the values were obtained:
HIV protease [1] = biological target: T1, HIV protease (Human immunodeficiency virus type 1 group M subtype B, UniProt P04585); details: FRET assay, Henderson equation
[2] = tested on: HIV-1 laboratory viral strain NL4.3 (wild type virus); assay: Anti-viral assay in vitro (MTT, infected MT-4 cells); assay type: cell-based; details: MT-4 cells infected with NL4.3, six days, MTT assay, read-out: EC50
Experimental: Anti-viral and Cytotoxicity Assays In Vitro
To evaluate the EC50 of our compounds, various drug concentrations are incubated with the infected cell for six days and then the metabolic activity of the cells is monitored by the MTT assay. (See A. J. Japour et al, Antimicrobial Agents and Chemotherapy, 37, 1095-1101, 1993 and R. Pauwels et al. Journal of Virological Methods, 20, 309-321, 1988)
We use the laboratory viral strain NL4.3 as wild type virus and the cell line used is MT-4 which is a T-cell line highly sensitive to HIV-1. We also use some WT clinical strains. To address the resistance issue we assay the inhibitors with NL4.3 mutants which are designed to be resistant to specific commercially,available inhibitors

HIV protease [3] = biological target: T1, HIV protease; assay: biochemical
[4] = Human immunodeficiency virus 1, MT4, 144 h

SMILES | Ki (HIV protease [1]) | EC50 [2] | Ki (HIV protease [3]) | EC50 [2, 4]
COC(=O)N[C@@H](Cc1ccccc1-c1ccccc1)C(=O)NCCCCC(CO)N(CC(C)C)S(=O)(=O)c1ccc(N)cc1 (stereo partly drawn) [Example 30, (1S,5R,S)-(1-{5-[(4-Amino-benzenesulfonyl)-isobutyl-amino]-6-hydroxy-hexylcarbamoyl}-2-biphenyl-2-yl-ethyl)-carbamic Acid Methyl Ester] | 1.4 nM | 344 nM | – | –
CC(C)CN([C@H](CO)CCCCNC(=O)[C@H](Cc1ccc2ccccc2c1)NC(=O)c1cnccn1)S(=O)(=O)c1ccc(N)cc1 [Example 62, (1S,5S)-Pyrazine-2-carboxylic Acid (1-{5-[(4-Amino-benzenesulfonyl)-isobutyl-amino]-6-hydroxy-hexylcarbamoyl}-2-naphthalen-2-yl-ethyl)-amide] | – | – | 2.1 nM | 361 nM
CC(C)CN([C@H](CO)CCCCNC(=O)[C@H](Cc1cccc2ccccc12)NC(=O)N1CCOCC1)S(=O)(=O)c1ccc2c(c1)OCO2 [Example 66, (1S,5S)-Morpholine-4-carboxylic Acid (1-{5-[(Benzo[1,3]dioxole-5-sulfonyl)-isobutyl-amino]-6-hydroxy-hexylcarbamoyl}-2-naphthalen-1-yl-ethyl)-amide] | – | – | 1.1 nM | 409 nM
CC(=O)N[C@H](C(=O)NCCCC[C@@H](CO)N(CC(C)C)S(=O)(=O)c1ccc(N)cc1)C(c1ccccc1)c1ccccc1 [Example 71, (2S,5S)-2-Acetylamino-N-{5-[(4-amino-benzenesulfonyl)-isobutyl-amino]-6-hydroxy-hexyl}-3,3-diphenyl-propionamide] | – | – | 1.5 nM | 66 nM
CC(C)CN([C@H](CO)CCCCNC(=O)[C@@H](NC(=O)c1cccnc1)C(c1ccccc1)c1ccccc1)S(=O)(=O)c1ccc(N)cc1 [Example 73, (1S,5S)-N-(1-{5-[(4-Amino-benzenesulfonyl)-isobutyl-amino]-6-hydroxy-hexylcarbamoyl}-2,2-diphenyl-ethyl)-nicotinamide] | – | – | 0.681 nM | 39 nM
CC(C)CN([C@H](CO)CCCCNC(=O)[C@@H](NC(=O)c1ccncc1)C(c1ccccc1)c1ccccc1)S(=O)(=O)c1ccc(N)cc1 [Example 74, (1S,5S)-N-(1-{5-[(4-Amino-benzenesulfonyl)-isobutyl-amino]-6-hydroxy-hexylcarbamoyl}-2,2-diphenyl-ethyl)-isonicotinamide] | – | – | 0.647 nM | 32 nM
CC(C)CN([C@H](CO)CCCCNC(=O)[C@@H](NC(=O)C1CC1)C(c1ccccc1)c1ccccc1)S(=O)(=O)c1ccc(N)cc1 [Example 75, (1S,5S)-Cyclopropanecarboxylic Acid (1-{5-[(4-Amino-benzenesulfonyl)-isobutyl-amino]-6-hydroxy-hexylcarbamoyl}-2,2-diphenyl-ethyl)-amide] | – | – | < 3.8 nM | 25 nM
CC(C)CN([C@H](CO)CCCCNC(=O)[C@@H](NC(=O)C1CCCCC1)C(c1ccccc1)c1ccccc1)S(=O)(=O)c1ccc(N)cc1 [Example 76, (1S,5S)-Cyclohexanecarboxylic Acid (1-{5-[(4-Amino-benzenesulfonyl)-isobutyl-amino]-6-hydroxy-hexylcarbamoyl}-2,2-diphenyl-ethyl)-amide] | – | – | < 3.8 nM | 93 nM
CC(C)CN(C(CO)CCCCNC(=O)C(NC(=O)C1CCOC1)C(c1ccccc1)c1ccccc1)S(=O)(=O)c1ccc(N)cc1 [Example 77, (1S,3R,S,5S)-Tetrahydro-furan-3-carboxylic Acid (1-{5-[(4-Amino-benzenesulfonyl)-isobutyl-amino]-6-hydroxy-hexylcarbamoyl}-2,2-diphenyl-ethyl)-amide] | – | – | 0.581 nM | 68 nM
COC(=O)N[C@H](C(=O)NCCCC[C@@H](CO)N(CC(C)C)S(=O)(=O)c1ccc(F)cc1)C(c1ccccc1)c1ccccc1 [Example 78, (1S,5S)-(1-{5-[(4-Fluoro-benzenesulfonyl)-isobutyl-amino]-6-hydroxy-hexylcarbamoyl}-2,2-diphenyl-ethyl)-carbamic Acid Methyl Ester] | – | – | < 3.8 nM | 94 nM
COC(=O)N[C@H](C(=O)NCCCC[C@@H](CO)N(CC(C)C)S(=O)(=O)c1ccc(C#N)cc1)C(c1ccccc1)c1ccccc1 [Example 79] | – | – | < 3.8 nM | 65 nM
COC(=O)N[C@H](C(=O)NCCCC[C@@H](CO)N(CC(C)C)S(=O)(=O)c1ccc(F)cc1F)C(c1ccccc1)c1ccccc1 [Example 80, (1S,5S)-(1-{5-[(2,4-Difluoro-benzenesulfonyl)-isobutyl-amino]-6-hydroxy-hexylcarbamoyl}-2,2-diphenyl-ethyl)-carbamic Acid Methyl Ester] | – | – | < 3.8 nM | 48 nM
